Laboratory results published in patent EP0480690A1, “Aqueous ophthalmic microemulsions of tepoxalin” (CIBA-GEIGY AG, priority 1990, dated 1992).

Key:
rabbit cornea = test: In vitro corneal penetration in modified Ussing chambers; assay type: in vitro ADME; conditions: 0.1% suspension and 0.1% microemulsion, 0 to 240 minutes
Protocol: Modified Ussing type chambers (H.F. Edelhauser, J.R. Hoffert, P.O. Fromm, Invest. Ophthalmol. Vis. Sci., 4:290-296 (1965)) designed with 2.5 ml donor and 2.5 ml receiver cells (separated by the cornea which is mounted between two sealing rings) are used for the studies to determine penetration of the cornea by the microemulsions of the invention. The system is 2-chambered (in vitro cells) (see Figure 1) and is designed to monitor the penetration of drug entities across biological membranes. Usually the cells are temperature controlled by means of an exterior water jacket; the stirring of the dosing and receiving solutions in the cells is achieved by bubbling a gas through the cells. In the case of the cornea, the gas is a mixture of 5% CO₂ balanced with oxygen, to maintain physiological Ph.
The eyes were enucleated with the conjunctival sac and lids attached. The cornea was excised and mounted using the Dikstein and Maurice Technique (S. Dikstein and D.M. Maurice, J. Physiol., 221: 29-41 (1972)). […]
100 µl Aliquots were sampled from the receiver side over a 4-hour period (0, 15, 30, 45, 60, 90, 120, 180 and 240 minutes). […] The mounted corneas were removed from the cells and the percentage hydration calculated by weighing the isolated tissue before and after drying (the corneas were placed in an oven overnight at 45°C). […] Untreated corneas were assessed as controls. […]

[1] = Solubility studies on tepoxalin in various vehicles; assay type: physicochemical
Excerpt: The low aqueous solubility of tepoxalin prompted solubility experiments with oils, surfactants, hydroxypropyl-beta-cyclodextrin, and combinations thereof. These experiments are summarized above in Table 1. A tepoxalin content of greater than 0.1% could be attained with a microemulsion using 1% castor oil and 2% of a Tween (polysorbate). […] The sequence of adding, mixing, and sonicating the drug and excipients is important in attaining a concentration greater than 0.1%.
Thus, 0.134% of the 0.15% drug in the emulsion resides in the interface.

[2] = Accelerated degradation of tepoxalin (16 hours at 100°C, HPLC); assay type: physicochemical
Protocol: The results of the first stability study prompted an investigation for a way to reformulate. Tepoxalin appears to hydrolyze at the amide group to form a carboxylic acid. An accelerated procedure has been developed to observe this degradation within 16 hours. The sample is analyzed by reversed-phase HPLC using a diode array for detection. […] With disodium Edetate in the microemulsion, the drug degraded at and above pH 7.0; degradation was minimal at pH's 5.0, 5.5 and 6.0. Thus, a second stability study was begun with 0.03% disodium Edetate in the formulation and the pH adjusted to 5.9 - 6.1 with a citric acid/sodium phosphate dibasic buffer.
A number of experiments were performed in succession in order to elucidate a mechanism for the degradation of tepoxalin in water and in the microemulsion and to determine optimum conditions for the tepoxalin microemulsion. The drug is suspected of vulnerability to acid and base catalysis of its […] amide group forming a carboxylic acid. The experiments and results: • (a) 0.1% tepoxalin was dissolved in 50:50 water: ethanol and aliquots were pH adjusted with 1M NaOH to 5.0, 6.0, 7.0, 8.0 and 12.6. The aliquots were heated in capped reaction vials for 16 hours at 100°C.
Two drops of 1M citric acid solution were added to an aliquot (1 ml) and the pH was adjusted with 1.0 M sodium phosphate dibasic to pH 5.0, 6.0, 7.0, and 7.6. The samples were heated as before.
The chromatograms show two major degradation products: one eluting before tepoxalin and another after.
The optimum pH appears between pH 6.2 and 6.4, but there is still significant degradation. • (d) The previous experiment (c) was repeated with disodium Edetate 0.03% in each sample and with the same pH range.
The presence of the second degradate that elutes before tepoxalin is also minimal. • (e) Experiment (d) was repeated with a broader pH range: 5.0, 5.5, 6.0, and 7.0.

Tepoxalin Solubility ([1]; Matrix: Water, Neat): 0.00044%
Tepoxalin Solubility ([1]; Oil, Surfactant Microemulsion: castor oil 1%, Tween 60 2%): 0.15%
Tepoxalin Solubility ([1]; Oil, Surfactant Microemulsion: castor oil 1%, Tween 80 2% (tepoxalin is added after microemulsion)): 0.085%
Tepoxalin Solubility ([1]; Oil, Surfactant Microemulsion: castor oil 1%, Tween 80 2% (tepoxalin is added before emulsion is prepared)): 0.147%
Tepoxalin Solubility ([1]; Oil, Surfactant Microemulsion: castor oil 2%, Tween 80 2%): 0.106%
Tepoxalin Solubility ([1]; Oil, Surfactant Microemulsion: castor oil 3%, Pluronic P-105 7%): 0.108%
Tepoxalin Solubility ([1]; Oils: Cottonseed, Neat): 0.06%
Tepoxalin Solubility ([1]; Oils: castor, Neat): 1.6%
Tepoxalin Solubility ([1]; Oils: mineral, Neat): 0.0%
Tepoxalin Solubility ([1]; Oils: perfluoro-decalin, Neat): 0.0%
Tepoxalin Solubility ([1]; Oils: sesame, Neat): 0.4%
Tepoxalin Solubility ([1]; Oils: sunflower Seed, Neat): 0.4%
Tepoxalin Solubility ([1]; Surfactant and HP-β-CD Solution: HP-β-CD 5%, Tween 80 2%): 0.097%
Tepoxalin Solubility ([1]; Surfactant and HP-β-CD Solution: HP-β-CD 10%, Tween 80 1%): 0.113%
Tepoxalin Solubility ([1]; Surfactants: Pluronic F-127, aqueous 6%): 0.035%
Tepoxalin Solubility ([1]; Surfactants: Pluronic P-105, aqueous 6% w/w): 0.099%
Tepoxalin Solubility ([1]; Surfactants: Tween 20, aqueous 2%): 0.053%
Tepoxalin Solubility ([1]; Surfactants: Tween 40, aqueous 2%): 0.066%
Tepoxalin Solubility ([1]; Surfactants: Tween 60, aqueous 2%): 0.079%
Tepoxalin Solubility ([1]; Surfactants: Tween 80, aqueous 1%): 0.030%
Tepoxalin Solubility ([1]; Surfactants: Tween 80, aqueous 2%): 0.089%
Tepoxalin Solubility ([1]; Surfactants: Tween 80, aqueous 3%): 0.099%
Tepoxalin Solubility ([1]; Surfactants: Tween 80, aqueous 6%): 0.120%
Maximum tepoxalin solubility for castor oil ([1]; castor oil): 1.6%
tepoxalin content ([1]; microemulsion using 1% castor oil and 2% of a Tween (polysorbate)): greater than 0.1%
drug in the emulsion that resides in the interface ([1]; of the 0.15% drug in the emulsion, 1% castor oil dispersed): 0.134%
pH of optimum stability ([2]; microemulsion with disodium Edetate 0.03%, from tepoxalin peak areas and heights): optimum stability between 5.5 and 6.0
pH of minimum degradation ([2]; microemulsion without Edetate, pH range 5 to 7.6): 6.2 - 6.4
Compound: COc1ccc(-n2nc(CCC(=O)N(C)O)cc2-c2ccc(Cl)cc2)cc1 [Tepoxalin, 3-[5-(4-chlorophenyl)-1-(4-methoxyphenyl)-3-pyrazolyl]-N-hydroxy-N-methylpropanamide]
penetration of tepoxalin across the cornea (rabbit cornea): penetrating the cornea from both formulations
degradation of tepoxalin ([2]; 0.1% microemulsion (castor oil, Tween 60, citrate/phosphate buffer), pH 5.0, 6.0, 7.0, 7.6, no Edetate, 16 hours at 100°C): The degradation occurs greatest at pH 5.0 and 7.6
degradation of tepoxalin ([2]; 0.1% tepoxalin in 50:50 water:ethanol, pH 5.0, 6.0, 7.0, 8.0, 12.6, 16 hours at 100°C): a degradation peak eluting after tepoxalin in samples at pH 6, 7, 8, 12.6 but not at pH 5.0
degradation of tepoxalin ([2]; microemulsion with disodium Edetate 0.03%, pH 5.0, 5.5, 6.0 and 7.0): Degradation was minimal at pH 5.0, 5.5, and 6.0
degradation of tepoxalin ([2]; microemulsion with disodium Edetate 0.03%, pH 6.0 to 7.0): Degradation is minimal at pH 6.0 and increases with pH to 7.0
